Data set [1] can be described thus: Fluorescence titration, VEPEP-9/cargo binding. To be noted: cargo SHM. The protocol: (§1) Fluorescence experiments were performed on a PTI spectrofluorimeter at 25° C. in a NaCl 154 mM buffer. Intrinsic Trp-fluorescence of VEPEP-9 was excited at 290 nm and emission spectrum was recorded between 310 and 400 nm, with a spectral band-pass of 2 and 8 nm for excitation and emission, respectively. FITC- or CY5-fluorescence of labelled-peptide or Oligonucleotide were excited at 492 nm and emission recorded between 500 and 580 nm. For VEPEP-9/peptide interaction, 0.5 μM of FITC-labelled peptide was titrated by increasing concentrations of VEPEP-9. For VEPEP-9/oligonucleotide interaction, 200 nM of FITC or CY5-labelled oligodeoxynucleotide (ODN) was titrated by increasing concentrations of VEPEP-9. All measurements were corrected for the dilution and curve fitting were performed by using Grafit software (Erithacus).
(§2) VEPEP-9 peptide form stable complexes with peptides and ODN. The binding of cargos to VEPEP-9 was monitored by fluorescence spectroscopy using the both intrinsic Trp group of VEPEP-9 (3 to 5 Trp-residues) and extrinsic fluorescently labelled cargoes (using Cy3, Cy5 or FITC). Curve fitting reveal that VEPEP-9 strongly binds the different cargoes with dissociation constant in the nanomolar range (Tables 1 and 2 and FIG. 2).
(§3) VEPEP-9 peptides form stable particles with different cargoes including peptide, siRNA, PNA and small aromatic (FIG. 2). The dissociation constant for peptide, siRNA, PNA and small hydrophobic molecule ranges between 10-100 nM, 5-50 nM, 5-50 nM and 0.02 to 0.2 μM, respectively, depending on the nature of the dyes and of the cargoes.

Another data set has as its system PNA (15 mer -PNA). Description: Fluorescence titration, VEPEP-9/cargo binding. To be noted: cargo PNA (15 mer). As for the experimental part:
as §1, §2, §3

Another data set deals with Peptide (C4). Description: Fluorescence titration, VEPEP-9/cargo binding. To be noted: cargo peptide (C4). The protocol: as §1, §2, §3
Another data set has as its system siRNA. Description: Fluorescence titration, VEPEP-9/cargo binding. To be noted: cargo siRNA. The protocol:
as §1, §2, §3

Data set [2] in a line: Fluorescence titration, VEPEP-9/SHM binding. As for the experimental part: as §1
Binding of small molecule cargoes has been investigated in detailed depending on the nature of the SHM. Several hydrophobic molecules have been used (Daunomycin, Paclitaxel, doxorubicin, porphyrin), as well as charged molecules (nucleotide, nucleoside and fluorescent dyes).

The next data set relates to cultured cells. Description: Cell cycle progression / cyclin B1 levels in cultured cells. It is filed as cell-based.
Data set [3] deals with PC3, A549, or SCK-3-HEK2-xenografted mice. Description: Tumour growth and cyclin B1 mRNA, siRNA controls. The class given is in vivo. To be noted: complexed with NANOPEP-9e, 0.5 mg/kg. As for the experimental part:
For siRNA treatment: Two to three weeks after tumour implant, when tumour size reached about 100 mm^3, animals were treated by intratumoral or intravenous injection, every 3 days, with a solution of 0.1 ml of either free Cyc-B1 siRNA (50 or 100 μg), control siRNA Cyc-B3 or Cyc-B1 siRNA (1, 5, 10 μg) complexed with NANOPEP-9 at a 1/20 molar ratio.
Athymic female nude mice (6-8 weeks of age) were subcutaneously inoculated into the flank with 1×10^6 PC3 (prostate cancer), A549 (lung cancer) or SCK-3-HEK2 (ovarian cancer) cells in 100 μl PBS. Two to three weeks after tumour implant, when tumour size reached about 100 mm^3, animals were treated by intratumoral or intravenous injection, every 3 days, with a solution of 0.1 ml of either free Cyc-B1 siRNA (50 or 100 μg), control siRNA Cyc-B3 or Cyc-B1 siRNA (5, 10 μg) complexed with NANOPEP-9b or NANOPEP-9e particles. The “core” shell of the particles was formed using VEVEP-9b or VEPEP-9e peptide at a molar ratio of 20/1 with a siRNA targeting cycline B1. siRNA stock solutions are in 50 mM Tris, 0.5 mM EDTA buffer or in RNase free water. VEPEP-9 peptides were solubilised in water and stock solution of peptide was sonicated for 10 min in a water bath before complex formation. Then VEPEP-9/siRNA complexes were formed by adding siRNA into the peptide solution and incubating at 37° C. for 20-30 minutes to allow the carrier peptide/siRNA complexes to form. NANOPEP-9 particles contain a VEPEP-9/siRNA “core shell” surrounded by additional VEPEP-9 at a 1/20 molar ratio.
The potential of NANOPEP-9b or NANOPEP-9e to deliver cyclin B1 siRNA in vivo was evaluated on PC3, A549, or SCK-3-HEK2-xenografted mice (FIGS. 13A-13B). The effect of local intratumoral administration of NANOPEP-9/siRNA particles (molar ratio 20/1) on the growth of established subcutaneous tumours was evaluated. At day 50, tumor sizes in the control cohort, injected with PBS increased by about 3 to 5 fold. […] At day 48, it was validated that the Cyc-B1 siRNA mediated inhibition of tumour growth was directly associated with a decrease in the level of cyclin B1 mRNA.

Data set [4] concerns non-transformed HS68 fibroblasts. Briefly: Cell proliferation after VEPEP-9 mediated delivery. It is filed as cell-based, Human. As for the experimental part:
(§4) Adherent HS68 fibroblasts, HeLa, PC3, MCF-7, SCK3-Her2, PBMC cell lines (from American Type Culture Collection (ATCC)) were cultured in Dulbecco's Modified Eagle's Medium supplemented with 2 mM glutamine, 1% antibiotics (streptomycin 10,000 μg/ml, penicillin, 10,000 IU/ml) and 10% (w/v) foetal calf serum (FCS), at 37° C. in a humidified atmosphere containing 5% CO2. Stock solutions of VEPEP-9/peptide particles were prepared by complexing 1 μM peptide with VEPEP-9 peptides at a molar ratio of 1/20 for 30 min at 37° C. Lower concentrations of VEPEP-9-carrier/peptide (from 500 nM to 1 μM) were obtained by serial dilution of the stock complexes in PBS, in order to preserve the same VEPEP-9-carrier/peptide ratio. Stock solutions of VEPEP-9/siRNA particles were prepared by complexing 100 nM siRNA with VEPEP-9 peptides at a molar ratio of 1/20 for 30 min at 37° C. Lower concentrations of VEPEP-9/siRNA (from 20 nM to 0.125 nM) were obtained by serial dilution of the stock complexes in PBS, in order to preserve the same VEPEP-9/siRNA ratio. […] For cdk2 derived peptides, cell proliferation was monitored after 24 and 48 hrs. For siRNA targeting Cyclin B1, Cyclin B1 mRNA level was determined 24 hrs following transduction, using Quantigen (Pommies Inc.). […]

For data set [5], the system named is Hela, MCF7, HEK-2 and U2OS cells. Briefly: Cell proliferation after VEPEP-9 mediated delivery. The class given is cell-based. As for the experimental part:
as §4

A further data set has as its system SKB3. Description: Inhibition of cancer cell proliferation by delivered drugs. It is filed as cell-based.
The test system of a further data set is MCF7. Described as above. It is filed as cell-based. To be noted: Homo sapiens.
[6] abbreviates: drug complexed with VEPEP-9a at molar ratio 1/20, read-out: VEPEP-9a IC50.
The mark [7] stands for this setting: drug complexed with VEPEP-9b at molar ratio 1/20, read-out: VEPEP-9b IC50.
Where [8] appears, read: drug complexed with VEPEP-9f at molar ratio 1/20, read-out: VEPEP-9f IC50.
The mark [9] stands for this setting: drug complexed with VEPEP-9d at molar ratio 1/20, read-out: VEPEP-9d IC50.
Setting [10] is: free drug, read-out: Free drug IC50.

Like-named read-outs stand apart in the source and are kept apart here. Where a SMILES comes first, the peptide text is derived from it. Some results are limits rather than exact numbers.

One may read the Kd as the constant that tells how readily two partners part at equilibrium. Usually IC50 stands for the point on the concentration scale where inhibition reaches its midpoint.

“X1WWGSWATPRRRWWR [VEPEP-9e, X1 is beta-A or S]”: the Binding entry in data set [1] is recorded as “Yes”; in the data set on PNA (15 mer -PNA), “Yes”; in the data set on Peptide (C4) it was “yes”; in the data set with siRNA, “yes”; in [2] (cargo AZT), “yes”; in data set [2] (cargo Doxorubicin), “yes”. The Binding result in data set [2] (cargo FAM-guanosine) and in data set [2] (cargo porphyrin) was “yes” in each case. Further, the Kd in [1] is 20 to 100 nM; at PNA (15 mer -PNA) it was 5 to 50 nM; on siRNA it was 5 to 50 nM; in [2] (cargo AZT) it was 90 nM; in data set [2] (cargo Doxorubicin), 50 nM; in data set [2] (cargo FAM-guanosine), 1100 nM. This compound also yielded a Kd in [2] (cargo porphyrin) of 200 nM. In the data set on cultured cells (carrier alone (100 μM)), the “effect on cyclin B1 levels and cell cycle progression” value is listed as “no effect”.

For the compound “Cyc-B3: mismatch cyclin B1 siRNA harbouring two mutations; sense 5′GGUGAAGAUCAGCAUGGCATT3′ (antisense UGCCAUGUCGAUCUUCACCTT; chemistry not given here)”, the “effect on cyclin B1 levels and cell cycle progression” value in the data set on cultured cells (200 nM, complexed with VEPEP-9 at a 20/1 ratio) is listed as “no effect”. The “inhibition of tumour growth” value in data set [3] is “unable to inhibit tumour growth”.

As to “X1WWRWWASWARSWWR [VEPEP-9d, X1 is beta-A or S]”, the Binding result is given as “Yes” in [1]; “Yes” with PNA (15 mer -PNA); “yes” in the data set with Peptide (C4); “yes” in the data set on siRNA; “yes” in [2] (cargo AZT); “yes” in data set [2] (cargo Doxorubicin). For the same compound, the Binding entry in [2] (cargo FAM-guanosine) and in data set [2] (cargo porphyrin) was “yes” in each case. The Kd was 20 to 100 nM in [1]; greater than 50 nM on PNA (15 mer -PNA); greater than 200 nM at siRNA; 20 nM in data set [2] (cargo AZT); 90 nM in data set [2] (cargo Doxorubicin); 400 nM in data set [2] (cargo FAM-guanosine). The same compound showed a Kd in data set [2] (cargo porphyrin) of 250 nM.

`CSCC[C@H](NC(=O)[C@H](CCCNC(=N)N)NC(=O)[C@@H](NC(=O)[C@H](CCC(N)=O)NC(=O)[C@H](CCCCN)NC(=O)[C@@H](N)CCCCN)C(C)C)C(=O)N[C@@H](C)C(=O)N[C@@H](Cc1c[nH]cn1)C(=O)N[C@@H](CC(C)C)C(=O)N[C@H](C(=O)N[C@@H](CC(C)C)C(=O)N[C@H](C(=O)O)[C@@H](C)O)C(C)C` [C4, KKQVRMAHLVLT] (H-KKQVRMAHLVLT-OH; N-terminus and C-terminus assumed) came in with a reduction of proliferation in data set [4] of 10%. Besides, in data set [5], the “concentration sufficient to block proliferation” value is reported as 200 nM. In the data set on cultured cells (VEPEP-9 mediated delivery), the “concentration at which 4 N accumulation was optimally obtained” value was found to be 200 nM.

Regarding `CC(=O)O[C@H]1C(=O)[C@@]2(C)[C@H]([C@H](OC(=O)c3ccccc3)[C@]3(O)C[C@H](OC(=O)[C@H](O)[C@@H](NC(=O)c4ccccc4)c4ccccc4)C(C)=C1C3(C)C)[C@]1(OC(C)=O)CO[C@@H]1C[C@@H]2O` [Taxol, taxol], the half-inhibitory concentration (IC50) in the data set with SKB3 (setting [6]) was 700 nM; in the data set with SKB3 (setting [7]), 650 nM; with SKB3 (setting [8]), 900 nM; in the data set on SKB3 (setting [9]), 700 nM; in the data set on SKB3 (setting [10]), 10000 nM; with MCF7 (setting [6]), 800 nM. Besides, the half-maximal inhibitory concentration (IC50) in the data set with MCF7 (setting [7]) is 120 nM; with MCF7 (setting [8]), 800 nM; with MCF7 (setting [9]) it was 500 nM; in the data set with MCF7 (setting [10]), 7000 nM.

Source of the values: patent publication US10421784B2, “Cell penetrating peptides for intracellular delivery of molecules” (AADIGEN, LLC, priority 2012, dated 2019).
